Results taken from patent US11980188B2, “Spiro cyclohexanedione derivates as herbicides” (SYNGENTA PARTICIPATIONS AG, priority 2018, dated 2024).

Tests used:
Test in all cases: Glasshouse herbicide test, pre- and post-emergence, percentage damage
Assay type in all cases: in vivo
[1] = system: Alopecurus myosuroides (ALOMY); conditions: 250 g/h, evaluated after 13 days, percentage damage on five point scale; for ALOMY POST: post-emergence; for ALOMY PRE: pre-emergence
Procedure, shortened: (§1)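 Herbicidal effect was scored 13 days after a 250 g/h spray, using bands of 0-19% (1) through 80-100% (5). Sowing preceded spraying by 1 day for pre-emergence and 8 days for post-emergence. The glasshouse ran at 24/16 °C with 14 h light.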

Lolium perenne (LOLPE) = conditions: 250 g/h, evaluated after 13 days, percentage damage on five point scale; for LOLPE POST: post-emergence; for LOLPE PRE: pre-emergence
Procedure, shortened: as §1

[2] = system: Echinochloa crus-galli (ECHCG); conditions: 250 g/h, evaluated after 13 days, percentage damage on five point scale; for ECHCG POST: post-emergence; for ECHCG PRE: pre-emergence
Procedure, shortened: as §1

Avena fatua (AVEFA) = conditions: 250 g/h, evaluated after 13 days, percentage damage on five point scale; for AVEFA POST: post-emergence; for AVEFA PRE: pre-emergence
Procedure, shortened: as §1

Setaria faberi (SETFA) = conditions: 250 g/h, evaluated after 13 days, percentage damage on five point scale; for SETFA POST: post-emergence; for SETFA PRE: pre-emergence
Procedure, shortened: as §1

| Structure (SMILES) | ALOMY POST [1] | ALOMY PRE [1] | LOLPE POST (Lolium perenne (LOLPE)) | LOLPE PRE (Lolium perenne (LOLPE)) | ECHCG POST [2] | ECHCG PRE [2] | AVEFA POST (Avena fatua (AVEFA)) | AVEFA PRE (Avena fatua (AVEFA)) | SETFA POST (Setaria faberi (SETFA)) | SETFA PRE (Setaria faberi (SETFA)) |
| --- | --- | --- | --- | --- | --- | --- | --- | --- | --- | --- |
| COCC(=O)N1CCC2(CC1)CC(=O)C(c1c(C)cc(-c3ncc(F)cn3)cc1C)C(=O)C2 [Compound A35] | 5 (5=80-100%) | 5 (5=80-100%) | 5 (5=80-100%) | 5 (5=80-100%) | 5 (5=80-100%) | 5 (5=80-100%) | 5 (5=80-100%) | 5 (5=80-100%) | 5 (5=80-100%) | 5 (5=80-100%) |
| Cc1cc(-c2ccc(C#N)cn2)cc(C)c1C1C(=O)CC2(CCN(C(=O)NC(C)(C)C)CC2)CC1=O [Compound A26] | 5 (5=80-100%) | 5 (5=80-100%) | 5 (5=80-100%) | 5 (5=80-100%) |  | 5 (5=80-100%) | 2 (2=20-39%) | 4 (4=60-79%) | 5 (5=80-100%) | 5 (5=80-100%) |
| CC(=O)N1CCC2(CC1)CC(=O)C(c1c(C)cc(-c3ncc(Cl)cc3F)cc1C)C(=O)C2 [Compound A50] | 5 (5=80-100%) | 5 (5=80-100%) | 5 (5=80-100%) | 5 (5=80-100%) | 5 (5=80-100%) | 5 (5=80-100%) | 5 (5=80-100%) | 5 (5=80-100%) | 5 (5=80-100%) | 5 (5=80-100%) |
| CON1CCC2(CC1)CC(=O)C(c1c(C)cc(-c3ncc(F)cn3)cc1C)C(=O)C2 [Compound A2, 9-[4-(5-fluoropyrimidin-2-yl)-2,6-dimethyl-phenyl]-3-methoxy-3-azaspiro[5.5]undecane-8,10-dione] | 5 (5=80-100%) | 5 (5=80-100%) | 5 (5=80-100%) | 5 (5=80-100%) | 5 (5=80-100%) | 5 (5=80-100%) | 5 (5=80-100%) | 5 (5=80-100%) | 5 (5=80-100%) | 5 (5=80-100%) |
| CC(=O)N1CCC2(CC1)CC(=O)C(c1c(C)cc(-c3ccc(Cl)cn3)cc1C)C(=O)C2 [Compound A45] | 5 (5=80-100%) | 5 (5=80-100%) | 5 (5=80-100%) | 5 (5=80-100%) | 5 (5=80-100%) | 5 (5=80-100%) | 5 (5=80-100%) | 5 (5=80-100%) | 5 (5=80-100%) | 5 (5=80-100%) |
| Cc1cc(-c2ccc(F)cc2)cc(C)c1C1C(=O)CC2(CCN(C(=O)C3CC3)CC2)CC1=O [Compound A59] |  | 5 (5=80-100%) | 5 (5=80-100%) | 5 (5=80-100%) | 5 (5=80-100%) | 5 (5=80-100%) | 5 (5=80-100%) | 5 (5=80-100%) | 5 (5=80-100%) | 5 (5=80-100%) |
| CCS(=O)(=O)N1CCC2(CC1)CC(=O)C(c1c(C)cc(-c3ncc(F)cn3)cc1C)C(=O)C2 [Compound A32] | 5 (5=80-100%) | 5 (5=80-100%) | 5 (5=80-100%) | 5 (5=80-100%) | 5 (5=80-100%) | 5 (5=80-100%) | 5 (5=80-100%) | 5 (5=80-100%) | 5 (5=80-100%) | 5 (5=80-100%) |
| Cc1cc(-c2ccc(F)cc2)cc(C)c1C1C(=O)CC2(CCN(C(=O)c3ccccn3)CC2)CC1=O [Compound A55] |  | 5 (5=80-100%) | 5 (5=80-100%) | 5 (5=80-100%) | 5 (5=80-100%) | 5 (5=80-100%) | 5 (5=80-100%) | 5 (5=80-100%) | 5 (5=80-100%) | 5 (5=80-100%) |
| CC(=O)N1CCC2(CC1)CC(=O)C(c1c(C)cc(-c3ncc(F)cc3F)cc1C)C(=O)C2 [Compound A48] | 5 (5=80-100%) | 5 (5=80-100%) | 5 (5=80-100%) | 5 (5=80-100%) | 5 (5=80-100%) | 5 (5=80-100%) | 5 (5=80-100%) | 5 (5=80-100%) | 5 (5=80-100%) | 5 (5=80-100%) |
| COc1cc(-c2ccc(F)cc2)cc(C)c1C1C(=O)CC2(CCN(C(=O)NC(=O)c3ccccn3)CC2)CC1=O [Compound A73] |  | 5 (5=80-100%) | 5 (5=80-100%) | 1 (1=0-19%) | 5 (5=80-100%) | 4 (4=60-79%) | 5 (5=80-100%) | 1 (1=0-19%) | 5 (5=80-100%) | 5 (5=80-100%) |
| CON1CCC2(CC1)CC(=O)C(c1c(C)cc(-c3ccc(C#N)cn3)cc1C)C(=O)C2 [Compound A3] | 5 (5=80-100%) | 5 (5=80-100%) | 5 (5=80-100%) | 5 (5=80-100%) | 5 (5=80-100%) | 5 (5=80-100%) | 5 (5=80-100%) | 5 (5=80-100%) | 5 (5=80-100%) | 5 (5=80-100%) |
| Cc1cc(-c2ncc(F)cn2)cc(C)c1C1C(=O)CC2(CCN(C(=O)c3ccccn3)CC2)CC1=O [Compound A34] | 5 (5=80-100%) | 5 (5=80-100%) | 5 (5=80-100%) | 5 (5=80-100%) | 5 (5=80-100%) | 5 (5=80-100%) | 5 (5=80-100%) | 5 (5=80-100%) | 5 (5=80-100%) | 5 (5=80-100%) |
| COc1cc(-c2ccc(F)cc2)cc(C)c1C1C(=O)CC2(CCN(C(=O)C(C)O)CC2)CC1=O (centres unmarked) [Compound A75] | 5 (5=80-100%) | 5 (5=80-100%) | 5 (5=80-100%) | 5 (5=80-100%) | 5 (5=80-100%) | 5 (5=80-100%) | 5 (5=80-100%) | 5 (5=80-100%) | 5 (5=80-100%) | 5 (5=80-100%) |
| COCC(=O)N1CCC2(CC1)CC(=O)C(c1c(C)cc(-c3ccc(F)cc3)cc1C)C(=O)C2 [Compound A56] |  | 5 (5=80-100%) | 5 (5=80-100%) | 5 (5=80-100%) | 5 (5=80-100%) | 5 (5=80-100%) | 5 (5=80-100%) | 5 (5=80-100%) | 5 (5=80-100%) | 5 (5=80-100%) |
| CC(=O)N1CCC2(CC1)CC(=O)C(c1c(C)cc(-n3cc(Cl)cn3)cc1C)C(=O)C2 [Compound A19] | 5 (5=80-100%) | 2 (2=20-39%) | 5 (5=80-100%) | 4 (4=60-79%) | 4 (4=60-79%) | 1 (1=0-19%) | 5 (5=80-100%) | 5 (5=80-100%) | 5 (5=80-100%) | 3 (3=40-59%) |
| CON1CCC2(CC1)CC(=O)C(c1c(C)cc(-c3ccc(F)cc3)cc1C)C(=O)C2 [Compound A6] | 5 (5=80-100%) | 5 (5=80-100%) | 5 (5=80-100%) | 5 (5=80-100%) | 5 (5=80-100%) | 5 (5=80-100%) | 5 (5=80-100%) | 5 (5=80-100%) | 5 (5=80-100%) | 5 (5=80-100%) |
| Cc1cc(-c2ccc(C#N)cn2)cc(C)c1C1C(=O)CC2(CCN(C(=O)CC#N)CC2)CC1=O [Compound A44] | 5 (5=80-100%) | 5 (5=80-100%) | 5 (5=80-100%) | 3 (3=40-59%) | 4 (4=60-79%) | 5 (5=80-100%) | 5 (5=80-100%) | 3 (3=40-59%) | 5 (5=80-100%) | 5 (5=80-100%) |
| Cc1cc(-c2ccc(C#N)cn2)cc(C)c1C1C(=O)CC2(CCN(C(=O)c3ccccn3)CC2)CC1=O [Compound A24] | 5 (5=80-100%) | 5 (5=80-100%) | 5 (5=80-100%) | 5 (5=80-100%) | 5 (5=80-100%) | 5 (5=80-100%) | 5 (5=80-100%) | 5 (5=80-100%) | 5 (5=80-100%) | 5 (5=80-100%) |
| COc1cc(-c2ccc(F)cc2)cc(C)c1C1C(=O)CC2(CCN(OC)CC2)CC1=O [Compound A9] | 5 (5=80-100%) | 5 (5=80-100%) | 5 (5=80-100%) | 5 (5=80-100%) | 5 (5=80-100%) | 5 (5=80-100%) | 5 (5=80-100%) | 5 (5=80-100%) | 5 (5=80-100%) | 5 (5=80-100%) |
